# US9067908B2, “Polyphenolic bioprecursors” (RHODIA CHIMIE, priority 2005, dated 2015)
# “Also recorded” adds a separate entry of the source. Read-outs that look alike come from different tables or passages of the source.
# Columns and labels:
# [1] = system: Stratum corneum enzymatic extract; test: Bio-hydrolysis with the cutaneous enzymes obtained by tape stripping; settings: for Bio-hydrolysis Rate (%): 35° C.
# Description: (§1) Samples of Stratum corneum are taken with surgical sparadrap (type Blenderm 3M Health Care, St. Paul, Minn., USA). The buffers used in the bio-hydrolysis trials are: 50 mM Tris(tris[hydroxymethyl]aminomethane) pH 7.3 and pH 8; 50 mM Na-acetate pH 5.5; 50 mM MES (2-[N-morpholino]-ethanesulphonic) acid pH 6 and 50 mM phosphate pH 6.5.
# (§2) The precursors are solubilised in acetonitrile at a concentration of 1 g/l. For the bio-hydrolysis trials 50 μl of substrate and 50 μl of acetonitrile in 900 μl of enzymatic extract in the buffer at a chosen pH are added. The reaction mixtures are incubated at 35° C. without stirring and shielded from the light. The evolution of the bio-hydrolysis is determined by HPLC (high-performance liquid chromatography) with reverse phase polarity. The controls are effected in the same solutions without enzymatic extracts of skin, in order to determine the chemical stability of the products.
# [2] = system: Stratum corneum enzymatic extract
# Description: as §1, §2
# [3] = Solubility of precursor in the bio-hydrolysis medium; format: physicochemical
# Excerpt: Resveratrol trilipoate is obtained via lipoic acid chloride prepared in situ under argon at ambient temperature in dichloromethane. The acylation reaction leads to a mixture of the products of coupling (phenolic and recorcinic monolipoates, dilipoates and trilipoates). The trilipoates were obtained after chromatography on silica. The product was not characterised for reasons of insolubility. For the same reasons it cannot be bio-hydrolysed (see Table 1).
Compound,Active substance(s) released by bio-hydrolyse: A [1],Active substance(s) released by bio-hydrolyse: B [1],Active substance(s) released by bio-hydrolyse: Polyphenol (PP) [1],Active substance(s) released by bio-hydrolyse: Polyphenol (PP) [2],Bio-hydrolysis Rate (%) [2] [%],other results
"CC(=O)Oc1cc(OC(=O)CCC(=O)Oc2c(C)c(C)c3c(c2C)CCC(C)(CCCC(C)CCCC(C)CCCC(C)C)O3)c2c(=O)cc(-c3ccc(OC(C)=O)c(OC(C)=O)c3)oc2c1 (stereo not drawn) [Lut(Ac)3-succinate-Vit E, 7-acetoxy-2-(3,4-diacetoxyphenyl)-4-oxo-4H-chromen-5-yl 2,5,7,8-tetramethyl-2-(4,8,12-trimethyltridecyl)-3,4-dihydro-2H-chromen-6-yl succinate]",Acetate +; also recorded: Succinate,Vitamin E,Luteolin,,,Bio-hydrolysis Rate (%) ([1]; bio-hydrolysis time 5 h): 70%
"CCCCCC(=O)Oc1ccc(/C=C/c2cc(OC(C)=O)cc(OC(C)=O)c2)cc1 [Res(Ac)2-caproate, 3,5-resveratrol diacetate-4′-caproate]",,,,Resveratrol,95,
"COc1cc(/C=C/C(=O)Oc2ccc(/C=C/c3cc(OC(C)=O)cc(OC(C)=O)c3)cc2)ccc1OC(C)=O [Res(Ac)2-ferulate(Ac), (E)-4-((E)-3,5-diacetoxystyryl)phenyl 3-(4-acetoxy-3-methoxyphenyl)acrylate]",Acetate,Ferulic acid,Resveratrol,,,Bio-hydrolysis Rate (%) ([1]; bio-hydrolysis time 6.5 h): 71%
"CC(=O)Oc1cc(/C=C/c2ccc(OC(=O)CCCCC3CCSS3)cc2)cc(OC(C)=O)c1 (stereo not drawn) [Res(Ac)2-lipoate, (E)-4-(3,5-diacetoxystyryl)phenyl-5-(1,2-dithiolan-3-yl)pentanoate]",Acetate,Lipoate,lipoic acid; also recorded: Resveratrol +,,,Bio-hydrolysis Rate (%) ([1]; bio-hydrolysis time 48 h): 87%
"CCCCCC(=O)Oc1ccc(/C=C/c2cc(OC(=O)CCCCC)cc(OC(=O)CCCCC)c2)cc1 [Res(caproate)3, 3,5,4′-resveratrol tricaproate, reference compound]",,,,Resveratrol,98,Active substance(s) released by bio-hydrolyse: A [2]: Caproate
"O=C(CCCCC1CCSS1)Oc1ccc(/C=C/c2cc(OC(=O)CCCCC3CCSS3)cc(OC(=O)CCCCC3CCSS3)c2)cc1 (stereo not drawn) [Res(lipoate)3, 3,5,4′-resveratrol trilipoate]",,,,,,Solubility of precursor in the medium [3]: insolubility
